Experimental data reported in US20150335696A1, “METHODS OF DEGRADING AGEs AND USES THEREOF” (ARKRAY, Inc., priority 2014, published 2015).

Test: AGEs-degrading activity: cleavage of AGEs crosslink model substance PPD, released benzoic acid measured by HPLC
Assay type: biochemical
Method: In the present example, AGEs-degrading activities of plant extracts were evaluated with 1-phenyl-1,2-propanedione (PPD) as an index.
The AGEs-degrading activity was evaluated by measuring the cleavage reaction of crosslinks in AGEs. Specifically, the evaluation was carried out in the following manner on the basis of the method described in Vasan et al. (Vasan S, et al., An agent cleaving glucose-derived protein crosslinks in vitro and in vivo. 1996. Nature; 382: pp. 275-278).
As a model substance for crosslinks in AGEs, 1-phenyl-1,2-propanedione (PPD) was used. A degradation reaction was caused by each extract sample with PPD as a substrate. More specifically, a reaction solution having the following composition was obtained by mixing the components in an Eppendorf tube, and the resultant mixture was incubated at 37° C. for 8 hours (n=3). […] The amount of benzoic acid released by the degradation of PPD in the supernatant was measured by HPLC carried out under the following conditions. Also, the amount of benzoic acid inherently contained in the extract sample was measured by HPLC carried out under the same conditions. Furthermore, as a positive control regarding the cleavage of crosslinks, the amount of released benzoic acid was measured in the same manner, except that 500 μL of 10 mmol/L phenacylthiazolium bromide (PTB) was used instead of the extract sample. […]

O=C(C[n+]1ccsc1)c1ccccc1.[Br-] [PTB, phenacylthiazolium bromide]
Relative activity Mean ± SD (%) (AGEs crosslink cleavage ratio relative to positive control PTB = 100%): 100.0% | AGEs crosslink cleavage ratio Mean ± SD (%) (PPD substrate, 37° C. for 8 hours, n=3, molar benzoic acid produced / molar PPD (B/P)): 38.2 ± 0.7%
